Data taken from ChEMBL document CHEMBL1142453, “Imidazoles: SAR and development of a potent class of cyclin-dependent kinase inhibitors” (Bioorg Med Chem Lett, 2008).
pIC50: −log10 of the molar value. Converted amounts (≈) assume the structure as drawn.

Key:
[1] = molecular target: Cyclin-dependent kinase 2 (Homo sapiens, UniProt P24941); test: Inhibition of CDK2
[2] = Lipophilicity, log D at pH 7.4; conditions: buffer
[3] = Fraction unbound in rat serum; assay type: ADME, cell-free
physchem = conditions: buffer, pH 7.4
MCF7 = test: Antiproliferative activity against human MCF7 cells assessed as BrdU incorporation after 48 hrs; assay type: functional, cell-based; conditions: MCF7, 48 h
LoVo = test: Antiproliferative activity against human LoVo cells assessed as BrdU incorporation after 48 hrs; assay type: functional, cell-based
[4] = molecular target: Cyclin-dependent kinase 4 (Homo sapiens, UniProt P11802); test: Inhibition of CDK4
Sequence of Cyclin-dependent kinase 4 (P11802 whole entry): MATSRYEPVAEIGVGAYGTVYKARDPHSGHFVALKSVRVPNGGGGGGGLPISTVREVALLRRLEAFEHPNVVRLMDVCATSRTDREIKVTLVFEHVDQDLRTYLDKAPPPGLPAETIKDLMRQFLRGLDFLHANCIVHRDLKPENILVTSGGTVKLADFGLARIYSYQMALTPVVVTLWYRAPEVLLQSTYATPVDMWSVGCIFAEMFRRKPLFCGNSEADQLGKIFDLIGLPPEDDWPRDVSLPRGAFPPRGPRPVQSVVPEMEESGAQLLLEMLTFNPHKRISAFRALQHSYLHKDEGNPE

G1/S-specific cyclin-E1 = G1/S-specific cyclin-E1 (Homo sapiens, UniProt P24864); test: Inhibition of Cyclin E/CDK2
Sequence of G1/S-specific cyclin-E1 (P24864 whole entry): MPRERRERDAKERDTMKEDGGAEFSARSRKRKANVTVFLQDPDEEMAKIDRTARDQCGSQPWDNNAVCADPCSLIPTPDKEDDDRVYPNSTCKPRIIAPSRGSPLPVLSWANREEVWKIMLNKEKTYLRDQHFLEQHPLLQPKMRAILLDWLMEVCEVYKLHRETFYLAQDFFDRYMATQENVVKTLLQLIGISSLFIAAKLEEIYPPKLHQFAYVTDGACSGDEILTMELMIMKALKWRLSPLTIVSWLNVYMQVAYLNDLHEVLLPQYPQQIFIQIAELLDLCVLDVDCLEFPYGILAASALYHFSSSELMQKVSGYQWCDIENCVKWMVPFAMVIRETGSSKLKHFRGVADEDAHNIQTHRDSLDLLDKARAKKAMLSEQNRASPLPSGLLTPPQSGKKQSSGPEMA

[5] = molecular target: G2/mitotic-specific cyclin-B1 (Homo sapiens, UniProt P14635); test: Inhibition of Cyclin B1/CDK1
Sequence of G2/mitotic-specific cyclin-B1 (P14635 whole entry): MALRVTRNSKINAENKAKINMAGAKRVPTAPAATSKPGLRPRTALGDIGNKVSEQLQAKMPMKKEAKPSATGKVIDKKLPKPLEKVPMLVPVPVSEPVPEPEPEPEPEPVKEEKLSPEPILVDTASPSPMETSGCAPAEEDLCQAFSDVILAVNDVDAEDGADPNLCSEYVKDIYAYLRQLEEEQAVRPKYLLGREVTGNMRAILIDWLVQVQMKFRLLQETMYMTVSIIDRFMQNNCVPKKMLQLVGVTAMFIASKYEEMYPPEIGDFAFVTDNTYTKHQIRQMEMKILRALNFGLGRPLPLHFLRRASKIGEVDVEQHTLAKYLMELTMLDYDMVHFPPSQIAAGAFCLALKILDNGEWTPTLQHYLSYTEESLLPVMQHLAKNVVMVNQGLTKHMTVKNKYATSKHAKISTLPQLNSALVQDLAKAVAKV

G1/S-specific cyclin-D3 = molecular target: T1, G1/S-specific cyclin-D3 (Homo sapiens, UniProt P30281); test: Inhibition of Cyclin D3/CDK6
T1 sequence (P30281 whole entry): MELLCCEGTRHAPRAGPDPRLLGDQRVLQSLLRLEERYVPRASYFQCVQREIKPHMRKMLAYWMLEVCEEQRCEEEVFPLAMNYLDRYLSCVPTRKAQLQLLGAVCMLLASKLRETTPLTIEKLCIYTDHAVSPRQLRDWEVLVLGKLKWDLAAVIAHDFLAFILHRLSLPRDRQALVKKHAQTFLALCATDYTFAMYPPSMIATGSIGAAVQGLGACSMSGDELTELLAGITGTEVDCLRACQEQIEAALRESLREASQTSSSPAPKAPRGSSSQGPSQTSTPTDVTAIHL

[6] = Volume of distribution at steady state in mouse at 5.5 mg/kg, iv; assay type: ADME, organism-based; design: dose 5.5 mg/kg, route intravenous; conditions: in vivo, read-out: Vdss
[7] = Clearance in mouse at 5.5 mg/kg, iv; assay type: ADME, organism-based; design: dose 5.5 mg/kg, route intravenous; conditions: in vivo
[8] = AUC (0 to t) in mouse at 10 mg/kg, po; assay type: ADME, organism-based; design: dose 10 mg/kg, route oral; conditions: plasma
[9] = Cmax in mouse at 10 mg/kg, po; assay type: ADME, organism-based; design: dose 10 mg/kg, route oral; conditions: in vivo
[10] = Tmax in mouse at 10 mg/kg, po; assay type: ADME, organism-based; design: dose 10 mg/kg, route oral; conditions: in vivo
[11] = Oral bioavailability in mouse at 10 mg/kg; assay type: ADME, organism-based; conditions: in vivo

Row | SMILES | pIC50 [1] | pIC50 (MCF7) | pIC50 (LoVo) | pIC50 [4] | other results
1 | COCCN(C)S(=O)(=O)c1ccc(Nc2nccc(-c3cnc(C)n3C)n2)cc1 | 6.40 | – | – | – | –
2 | CN(C)CCNS(=O)(=O)c1ccc(Nc2nccc(-c3cnc4ccccn34)n2)cc1 | – | – | – | – | logD [2]: 2.7; fraction unbound [3]: 0.03; solubility (physchem): 31 µM (≈ 13.6 µg/mL)
3 | Cc1ncc(-c2ccnc(Nc3ccc(S(=O)(=O)NCCN(C)C)cc3)n2)n1C | 7.60 | 6.31 | – | – | –
4 | Cc1ncc(-c2ccnc(Nc3ccc(S(N)(=O)=O)cc3)n2)n1C | 7.96 | 6.06 | – | – | –
5 | CN(C)CCCNS(=O)(=O)c1ccc(Nc2nccc(-c3cnc4cccnn34)n2)cc1 | – | – | – | – | logD [2]: 1.4; fraction unbound [3]: 0.148; solubility (physchem): 160 µM (≈ 72.4 µg/mL)
6 | CCCS(=O)(=O)c1ccc(Nc2nccc(-c3cnc(C)n3C(C)C)n2)cc1 | 8.10 | – | 5.74 | – | –
7 | CNS(=O)(=O)c1ccc(Nc2nccc(-c3cnc4cccnn34)n2)cc1 | > 8.52 | 6.25 | – | – | –
8 | Cc1ncc(-c2ccnc(Nc3ccc(S(=O)(=O)NCCCOC(C)C)cc3)n2)n1C | 8.22 | 6.49 | – | – | –
9 | Cc1ncc(-c2ccnc(Nc3ccc(S(=O)(=O)CC4CCCO4)cc3)n2)n1C(C)C (stereo not drawn) | 7.89 | – | 5.92 | 6.28 | –
10 | COCCNS(=O)(=O)c1ccc(Nc2nccc(-c3c(C)nc(C)n3C)n2)cc1 | 7.17 | – | 5.04 | < 5.07 | –
11 | CCn1c(-c2ccnc(Nc3ccc(S(C)(=O)=O)cc3)n2)cnc1C | 7.64 | – | – | – | –
12 | COCCNS(=O)(=O)c1ccc(Nc2nccc(-c3cnc4cccnn34)n2)cc1 | – | – | – | – | fraction unbound [3]: 0.008
13 | Cc1ncc(-c2ccnc(Nc3ccc(S(=O)(=O)CCCN(C)C)cc3)n2)n1C | 6.53 | – | – | – | –
14 | COCCNS(=O)(=O)c1ccc(Nc2nccc(-c3cnc(C)n3C3CCCC3)n2)cc1 | > 8.52 | – | 6.21 | – | –
15 | Cc1ncc(-c2ccnc(Nc3ccc(S(=O)(=O)Cc4ccccc4)cc3)n2)n1C(C)C | 7.72 | – | 5.82 | 5.82 | –
16 | COCCNS(=O)(=O)c1ccc(Nc2nccc(-c3cnc(C)n3CC(C)C)n2)cc1 | 7.82 | – | 5.74 | – | –
17 | COCCNS(=O)(=O)c1ccc(Nc2nccc(-c3cnc4ccccn34)n2)cc1 | > 7.92 | 6.40 | – | – | –
18 | COCCNS(=O)(=O)c1ccc(Nc2nccc(-c3cnc(C)n3C(C)C)n2)cc1 | – | – | 6.51 | 6.70 | –
19 | COCCS(=O)(=O)c1ccc(Nc2nccc(-c3cnc(C)n3C(C)C)n2)cc1 | 7.85 | – | 6.16 | 6.31 | –
20 | Cc1ncc(-c2ccnc(Nc3ccc(S(=O)(=O)CCCN(C)C)cc3)n2)n1C(C)C | 7.44 | – | 6.05 | 6.85 | logD [2]: 1.3; fraction unbound [3]: 0.32; solubility (physchem): > 6800 µM
21 | CN(C)CCNS(=O)(=O)c1ccc(Nc2nccc(-c3cnc4cccnn34)n2)cc1 | – | 6.59 | – | – | –
22 | Cc1ncc(-c2ccnc(Nc3ccc(S(C)(=O)=O)cc3)n2)n1C(C)C [AZD-5438] | – | – | 6.20 | – | pIC50 (G1/S-specific cyclin-E1): 8.22; pIC50 [5]: 7.80; pIC50 (G1/S-specific cyclin-D3): 7.68; logD [2]: 2.4; fraction unbound [3]: 0.087; Vd [6]: 1.01 L/kg; clearance [7]: 21.8 mL/min/kg; AUC(0-t) [8]: 18.7 µM·h; Cmax [9]: 6.4 µM; Tmax [10]: 19.8 min; bioavailability [11]: 91%; solubility (physchem): 218 µM (≈ 81 µg/mL)
23 | COCCNS(=O)(=O)c1ccc(Nc2nccc(-c3cnc(C)n3C)n2)cc1 | 8.10 | 6.21 | 5.40 | 5.25 | –
24 | Cc1ncc(-c2ccnc(Nc3ccc(S(=O)(=O)CCCN4CCOCC4)cc3)n2)n1C(C)C | 7.48 | – | 5.92 | 6.68 | –
25 | CCn1c(-c2ccnc(Nc3ccc(S(=O)(=O)NCCOC)cc3)n2)cnc1C | 8.40 | – | 5.82 | 5.89 | fraction unbound [3]: 0.014
26 | NS(=O)(=O)c1ccc(Nc2nccc(-c3cnc4ccccn34)n2)cc1 | 8.70 | 6.59 | – | – | logD [2]: 2.7; fraction unbound [3]: 0.001; solubility (physchem): 6.5 µM (≈ 2.38 µg/mL)
27 | CNS(=O)(=O)c1ccc(Nc2nccc(-c3cnc(C)n3C)n2)cc1 | > 8.52 | 6.30 | – | – | –
